Data on two molecules can be found in patent US20070160501A1, “Device and method for treating a crystal by applying microdrops thereto” (PROTEROS BIOSTRUCTURES GMBH, priority 2003, published 2007).

In series [1] the target is Human a Thrombin (Homo sapiens, UniProt P00734). The series is described as follows: Binding of PMSF to a freely mounted thrombin crystal by dripping on microdrops, X-ray crystallographic examination. The following applies: 100 mM PMSF in isopropyl alcohol dripped on thrombin crystal; active center around Ser195; FIG. 4. From the text:
A thrombin crystal was mounted on the free mounting system by means of a loop at a previously determined initial humidity of 93%. Under a microscope, surplus reservoir buffer was cautiously removed from the loop by means of a strip of filter paper. The stability and the consistency of the size of the crystal, respectively, were monitored by means of the video system.
Herein, a highly concentrated PMSF solution in an organic solvent was used.
Subsequently, the crystal was bombarded with individual drops (single shot mode) of the solution. The total volume dripped on approximately corresponded to the volume of the crystal, i.e. about 300 pl. […] Herein, the projection of the surface of the crystal was monitored after each dripping-on and it was waited until the surface remained uniform again before the next drop was applied. The individual parameters of the experiment can be seen in Table 1.
After completion of dripping-on, the crystal was moistened with PFPE oil (perfluoropolyether) and shock-frozen in liquid nitrogen. The X-ray crystallographic data record was recorded on a rotating copper anode. Data processing was conducted by means of the programs XDS and XSCALE, refinement and manual model construction was conducted by means of the programs CNX and O. The statistics of data collection, processing, and refinement are given in Table 2.

The conditions of series [2]: cited from earlier work.
In series [3] the target is human α-thrombin (Homo sapiens, UniProt P00734). The following applies: stated in brackets without method; inhibitor used with human α-thrombin; cited from earlier work.

SMILES strings stand for the structures. pKi: −log10 of the molar value.

Turning to `O=S(=O)(F)Cc1ccccc1` [PMSF, Phenylmethylsulfonyl Fluoride], in series [1], the “binding mode seen in the experimentally determined electron density” value is recorded as “covalent bond of the PMSF at Ser195”.
Turning to `Cl.NCCc1ccc(S(=O)(=O)F)cc1` [Pefabloc SC, 4-(2-aminoethyl)-benzenesulfonyl-fluoride-hydrochloride], the “stability in an aqueous system” value in series [2] is given as “high stability in an aqueous system”. Besides, the negative-log Ki (pKi) in series [3] is 5.19.

Broadly, the pKi is the negative decadic logarithm of the Ki, by convention in mol/L.
